Source: PubChem BioAssay (NCI)
Several values for one entry are separate records, joined by “and”; a condition that tells them apart may be missing. Identical values can stand only once.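 48-hour exposure; five concentrations; linearly interpolated endpoints. GI50 marks 50% less growth. Definition used: TGI = concentration required for complete inhibition of growth.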

Experiments:
Assay in all cases: NCI-60 cell line screen, 48 h
IGROV1 ovarian = tested on: IGROV1 ovarian
NCI-H226 lung = tested on: NCI-H226 lung
HCC-2998 colon = tested on: HCC-2998 colon
HS 578T breast = tested on: HS 578T breast
SW-620 colon = tested on: SW-620 colon
RPMI-8226 leukemia = tested on: RPMI-8226 leukemia
NCI/ADR-RES ovarian = tested on: NCI/ADR-RES ovarian
COLO 205 colon = tested on: COLO 205 colon
UACC-62 melanoma = tested on: UACC-62 melanoma
SN12C renal = tested on: SN12C renal

Compound	GI50 (IGROV1 ovarian)	TGI (IGROV1 ovarian)	GI50 (NCI-H226 lung)	GI50 (HCC-2998 colon)	TGI (HCC-2998 colon)	GI50 (HS 578T breast)	TGI (HS 578T breast)	GI50 (SW-620 colon)	TGI (SW-620 colon)	GI50 (RPMI-8226 leukemia)	TGI (RPMI-8226 leukemia)	GI50 (NCI/ADR-RES ovarian)	GI50 (COLO 205 colon)	TGI (COLO 205 colon)	GI50 (UACC-62 melanoma)	TGI (UACC-62 melanoma)	GI50 (SN12C renal)	TGI (SN12C renal)	TGI (NCI/ADR-RES ovarian)	TGI (NCI-H226 lung)
COc1cc(C(=O)c2cnc(-c3c[nH]c4cccc(C)c34)[nH]2)cc(OC)c1OC	0.00842 µM and 0.0168 µM	> 100 µM	0.00485 µM	0.0183 µM	29.4 µM	0.00655 µM	> 100 µM	0.00416 µM	> 100 µM	0.0399 µM	19.8 µM	0.0123 µM	0.00513 µM	0.0412 µM	0.0044 µM	> 100 µM	0.00929 µM	> 100 µM	–	–
Cc1ccc(NCCNCC(C)(C)O)c2c(=O)c3ccc(Cl)cc3sc12	1.35 µM	2.96 µM	–	1.38 µM	2.91 µM	1.59 µM	3.84 µM	1.5 µM	2.96 µM	–	–	1.52 µM	1.34 µM	2.92 µM	1.81 µM	3.42 µM	1.47 µM	3.01 µM	3.02 µM	–
CN(C)CCCN1c2ccccc2Sc2ccc(C(F)(F)F)cc21	1.67 µM	3.31 µM and 29.3 µM and 30.1 µM	1.56 µM	1.46 µM and 10.5 µM and 4.5 µM	2.89 µM and 23.8 µM and 15.8 µM	1.63 µM	3.7 µM and 28.5 µM	1.58 µM	–	2.03 µM	6.06 µM and 35.7 µM and 45.4 µM	1.66 µM	1.38 µM	–	1.46 µM	–	1.66 µM	3.62 µM and 32.2 µM and 29.5 µM	3.42 µM and 31.1 µM	3.17 µM
O=C1CCC(c2ccccc2)=NN1c1nc2ccccc2s1	–	> 100 µM	–	–	> 61 µM	–	> 100 µM	–	> 100 µM	–	> 87.9 µM	–	–	18.1 µM	–	> 100 µM	–	> 94.1 µM	76.6 µM	> 100 µM
CC(C)(O)C1COC2=C1C(=O)c1ccccc1C2=O (stereo unspecified)	–	> 100 µM	–	–	> 100 µM	–	> 100 µM	–	50.4 µM	–	> 100 µM	–	–	> 100 µM	–	42.9 µM	–	77.8 µM	62.1 µM	> 100 µM
O=C1C(Cl)=C(Nc2ccc(S(=O)(=O)c3ccc(NC4=C(Cl)C(=O)c5ccccc5C4=O)cc3)cc2)C(=O)c2ccccc21	–	–	3.1 µM	2.82 µM	6.33 µM	1.82 µM	5.85 µM	–	–	1.54 µM	7.25 µM	3.68 µM	1.74 µM	3.22 µM	1.66 µM	3.18 µM	–	–	35.2 µM	18.6 µM
Cc1sc(/N=C/C2=C(O)CC(C)(C)CC2=O)nc1-c1ccccc1	–	> 100 µM	–	–	> 100 µM	–	> 100 µM	–	> 100 µM	–	> 100 µM	–	–	> 100 µM	–	> 100 µM	–	> 100 µM	> 100 µM	> 100 µM
CCn1cc(C(=O)O)c(=O)c2cc(F)c(N3CCN(S(=O)(=O)c4ccc(Cl)cc4Cl)CC3)cc21	2.33 µM	5.08 µM	2.6 µM	2.29 µM	5.17 µM	2.53 µM	7.66 µM	3.91 µM	> 100 µM	2.55 µM	7.59 µM	3.28 µM	2.44 µM	5.1 µM	1.62 µM	3.42 µM	2.77 µM	> 100 µM	28 µM	7.88 µM
O=C(Nc1ccn(C2CC(O)C(COC(c3ccccc3)(c3ccccc3)c3ccccc3)O2)c(=O)n1)c1ccccc1 (stereo unspecified)	–	6.12 µM	–	–	21.6 µM	–	5.91 µM	–	5.46 µM	–	5.2 µM	–	–	4.07 µM	–	20 µM	–	3.61 µM	5.25 µM	35.4 µM
COc1cc(C2CC(c3ccccc3)=NN2C=O)ccc1Oc1ccnc2cc(Cl)ccc12 (stereo unspecified)	35 µM	> 100 µM	5.24 µM	> 100 µM	> 100 µM	5.6 µM	> 100 µM	> 100 µM	> 100 µM	–	–	3.23 µM	> 100 µM	> 100 µM	6.76 µM	> 100 µM	> 100 µM	> 100 µM	> 100 µM	> 100 µM
Cc1cc(C)c2nc3c(c(C(O)C4CCCCN4)c2c1)CC/C3=C\c1ccc(Cl)cc1 (stereo unspecified)	–	> 100 µM	–	–	–	–	> 100 µM	–	> 100 µM	–	> 100 µM	–	–	> 100 µM	–	> 100 µM	–	> 100 µM	> 100 µM	> 100 µM
COC(=O)[C@@]12OC[C@]34[C@H]([C@@H](O)[C@@H]1O)[C@@]1(C)CC(=O)C(O)=C(C)[C@@H]1C[C@H]3OC(=O)[C@H](OC(=O)/C=C(\C)C(C)C)[C@@H]24	–	0.0153 µM and 0.059 µM	–	–	0.00342 µM	0.02 µM	0.0209 µM and 0.0273 µM	–	–	–	0.0129 µM and < 0.0409 µM and 0.0545 µM	–	–	0.0167 µM and 0.0586 µM	–	0.0131 µM and 0.023 µM	–	0.0582 µM and 0.0317 µM and 0.102 µM	–	0.00771 µM and 0.0236 µM
